Measured values taken from PMC4644980, “The FDA-approved natural product dihydroergocristine reduces the production of the Alzheimer’s disease amyloid-β peptides” (Scientific Reports, 2015).
“And” between values parts separate entries of the source, which are not always exact repeats. Equal entries are not always repeated. Structures can show the parent of a compound that is named as a salt.

How the values were obtained:
γ-secretase [1] = target: T1, γ-secretase (Homo sapiens, UniProt P49768+Q92542); assay: surface plasmon resonance, γ-secretase immobilized; assay type: binding; parameters: made in house; conditions: SPR, Biacore T100, NTA chip; read-out: equilibrium dissociation constant (Kd), γ-secretase
Experimental: A Biacore sensor Chip NTA that is designed to bind His-tagged proteins was used to immobilize γ-secretase. The SPR assay was performed in a running buffer (10 mM HEPES, 150 mM NaCl in the presence of 1% DMSO, pH 7.4). The purified His-tagged γ-secretase overexpressing human PS1, Flag-Pen-2, Aph-1a2-HA, and NCT-V5/His (see above) was diluted 6 times in DMSO-free running buffer. For each binding curve, the running buffer containing 500 μM NiCl2 was first injected to saturate the NTA chip. Then, His-tagged γ-secretase was injected and immobilized on the Ni^2+ -coated sensor chip. Compounds at the indicated concentrations were injected onto the surface of the sensor chip, and the corresponding binding spectrum was recorded. The sensor chip was regenerated with regeneration buffer (10 mM HEPES, 150 mM NaCl, 350 mM EDTA, pH 8.3). Purified human NCT (100 μg) was immobilized onto the flow cell of a CM5 sensor chip in 10 mM sodium acetate (pH 4.0) by using an amine coupling kit. The SPR assay was performed in HBS-P running buffer (10 mM HEPES, 150 mM NaCl and 0.005% surfactant P20 in the presence of 1% DMSO, pH 7.4). […] The Kd values were determined with Biacore evaluation 3.1 software.

γ-secretase [2] = target: T1, γ-secretase; assay: cell-based luciferase reporter assay for γ-secretase inhibition (T100 cells); parameters: endogenous in cells; host or cells: T-REx HeLa cells (T100) stably transfected with the substrate C99-Gal4-VP16 and a luciferase reporter; conditions: 24 h, read-out: IC50 for inhibiting the activity of γ-secretase in T100 cells
Experimental: To identify natural product-based bioactive inhibitors of γ-secretase, we screened 417 natural products by using a cell-based luciferase reporter assay for γ-secretase inhibition (T100, see Methods), which we recently developed in TREx HeLa cells according to the methodology described in ref. [17]. […] Thus, this assay is sufficiently sensitive to detect the inhibitory effects of 100 nM DAPT on cellular γ-secretase activity. Additionally, this new cell-based assay tolerated up to 2% DMSO, which is a great advantage when screening inhibitors in a high-throughput format.
T-REx-HeLa cells (T100) stably overexpressing C99-Gal4-VP16 and luciferase were generated according to the method described in refs [17],[30]. For details, see Supplementary Information.
Cell-based γ-secretase assays were performed using the T100 cell line according to the methods detailed in ref. [30] (for details, see Supplementary information). […]
concentrations of substrate at 37 °C for 4 h, after which the enzymatic reactions were stopped by adding 0.5% SDS (final concentration). The samples were analyzed by Western Blot for AICD-Flag or Aβ. […]

CC(C)[C@@]1(NC(=O)[C@@H]2C[C@@H]3c4cccc5[nH]cc(c45)C[C@H]3N(C)C2)O[C@@]2(O)[C@@H]3CCCN3C(=O)[C@H](Cc3ccccc3)N2C1=O [DHEC, Dihydroergocristine methanesulfonate salt]
Kd (γ-secretase [1]): 0.0257 µM | IC50 (γ-secretase [2]): 20 µM and ~25 µM
